In PubChem BioAssay AID179 (DTP/NCI, 2004):
“And” between values parts separate entries of the source, which are not always exact repeats. Equal values may be shown once. The source made the active and inactive calls.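 The calls were made as follows: active = compounds giving half or more protection of infected cells from virus-caused growth loss, again on retest; inactive = the rest.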

Test system: CEM cells HIV-1 protection, formazan growth assay
Assay: NCI AIDS Antiviral Assay
Conditions: for IC50: measured here: growth of uninfected CEM cells
How it was run: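 Steps: treat uninfected and HIV-1-infected human CEM cells at five drug levels; quantify growth by soluble formazan; retest any compound reaching 50% protection; classify actives from the retest.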

SMILES | EC50 | IC50 | outcome
O=C(/C=C/c1ccccc1Cl)NC1C=Nc2ccc([N+](=O)[O-])cc2NC1 (stereo not drawn) | > 26.9 µM | > 26.9 µM | –
Nc1ncnc2c1ncn2C1CC(CO)C(CO)O1 (stereo not drawn) | – | – | inactive
CCCCCCCCCCCCCCCCOCC(Cl)COP(=O)(O)OP(=O)(O)OCC1OC(n2cnc3c(N)ncnc32)C(O)C1O (stereo not drawn) | > 100 µM | > 100 µM | –
CC(=O)O[C@@H]1CC[C@]2(C)C3CC[C@]4(C)C(C(C)CCc5nc6ccccc6[nH]5)CCC4C3[C@H](OC(C)=O)C[C@@H]2C1 (stereo partly drawn) | > 50.1 µM | 12.9 µM | –
CCCCCCCCCCC(=O)CC(=O)c1c(O)cccc1O | – | – | inactive
O=C(O)c1ccccc1O.OC1CCCC2CCC[N-]C12.[Cu+] (stereo not drawn) | > 200 µM | 0.603 µM | –
Cc1cc2c(C)n(Cc3ccc(Cl)cc3Cl)nc2c(C#N)c1C | > 20.9 µM | > 20.9 µM | –
O=C1NC(N2CCOCC2)=N/C1=C\c1ccccc1 | > 200 µM | > 200 µM | –
O=c1[nH][nH]c2c1SCc1ccccc1-2 | > 955 µM | 468 µM | –
N#CC1N(C(=O)c2ccc(F)cc2)c2ccccc2N1C(=O)c1ccc(F)cc1 | > 200 µM | 74.1 µM | –
CCCCCCCCCCCCCCCCOC1OC(CSSCC2OC(OCCCCCCCCCCCCCCCC)C(O)C(O)C2O)C(O)C(O)C1O (stereo not drawn) | 5.25 µM | 6.03 µM | –
O=c1[nH]c(=O)n(C2OC(CO)C(O)C2O)cc1NN=NCc1ccccc1 (stereo not drawn) | > 182 µM | > 182 µM | –
NC(=S)Nc1nnc(-c2ccc(-c3nnc(NC(N)=S)o3)cc2)o1 | – | – | inactive
CC(=O)OCC1C(OC(C)=O)CC2CCC1N2C#N (stereo not drawn) | > 200 µM | > 200 µM | –
NC(=O)c1coc(C2OC(CO)C(O)C2O)n1 (stereo not drawn) | > 1020 µM | > 1020 µM | –
C[C@]12c3c4cc(NC(=O)C(=O)NCc5ccc(-c6ccccn6)nc5)cc3Oc3cc(NC(=O)C(=O)NCc5ccc(-c6ccccn6)nc5)cc(c31)OC1C=C(NC(=O)C(=O)NCc3ccc(-c5ccccn5)nc3)C=C(O4)C12 (stereo partly drawn) | > 100 µM | 21.4 µM | –
c1ccc([P+](Cc2csnn2)(c2ccccc2)c2ccccc2)cc1 | > 331 µM | 174 µM | –
CC(C)=CCOc1cc(O)c2c(O)c3c(cc2c1)CC(C)(C)CC3=O | > 100 µM | 7.08 µM | –
O=C(c1nc2ccc(Cl)cc2[nH]c1=O)C(O)c1ccco1 (stereo not drawn) | > 8.13 µM | 2.57 µM | –
NNc1ncnc2cccc(Cl)c12 | > 200 µM | > 200 µM | –

SMILES | EC50 | IC50 | outcome
Oc1ccc2ccccc2c1C=Nc1ccc(SSc2ccc(N=Cc3c(O)ccc4ccccc34)cc2)cc1 | > 200 µM | 30.2 µM | –
COC1C(OC(=O)/C=C/C=C/C=C/C=C\C(=O)O)CCC2(CO2)C1C1(C)OC1CC=C(C)C (stereo not drawn) | 49 µM | > 200 µM | –
Cc1cccc(N=Nc2c(C)nn(C(=O)CC(=O)Nc3ccccc3)c2C)c1 | > 200 µM | > 200 µM | –
CC1=NN(c2ccccc2)C(=O)C1N=Nc1ccc(S(=O)(=O)Nc2occ(C)c2C)cc1 (stereo not drawn) | – | – | inactive
NCCCC[C@H](NC(=O)[C@H](CS)NC(=O)[C@@H](N)Cc1cnc[nH]1)C(=O)N[C@@H](Cc1ccc(O)cc1)C(=O)N[C@@H](Cc1c[nH]c2ccccc12)C(=O)N[C@@H](Cc1c[nH]c2ccccc12)C(N)=O | > 200 µM | > 200 µM | –
O=C(O)c1cc(=O)c2cc(C(=O)c3cccs3)c(Cl)c(Cl)c2o1 | > 9.55 µM | > 9.55 µM | –
O=C1c2sccc2[C@H](NC(=O)C(F)(F)F)[C@@H]1Cl | > 200 µM | > 200 µM | –
c1ccc(-c2nc3c(N4CCOCC4)ncnc3o2)cc1 | > 25.7 µM | > 25.7 µM | –
Cc1nnc(N)nc1C/C=C/C(C)Sc1ccc(Cl)cc1 (stereo not drawn) | > 200 µM | 6.61 µM | –
COc1cc2oc(=O)cc(C)c2c(OC)c1OC(C)=O | > 200 µM | > 200 µM | –
OCCN1CCN(C2=Nc3cccnc3Nc3cscc32)CC1 | > 200 µM | > 200 µM | –
O=C(O)Cc1ccccc1CCc1ccccc1Cl | > 479 µM | 251 µM | –
O=C(O)c1ccc2c(n1)-c1nc3nc4c(cc3cc1CC2)CCc1ccc(C(=O)O)nc1-4 | > 200 µM | 21.9 µM | –
CC1(C)CC(=O)C(CC2C(=O)CCCC2=O)C(=O)C1 | > 955 µM | 891 µM | –
O=C1c2nn(-c3ccccc3)nc2C(c2ccccc2)N1c1ccccc1 (stereo not drawn) | > 14.8 µM | > 14.8 µM | –
CC(C)(C)OC(=O)C(C#N)C(=O)c1ccc(C(=O)O)[nH]1 (stereo not drawn) | > 200 µM | 23.4 µM | –
O=C1CCCCC/C=C2/CC[C@H](Sc3ccccc3)[C@@H]12 | > 200 µM | 53.7 µM | –
Cc1ccc(Nc2cc(=O)[nH]c(=O)[nH]2)cc1CS | > 200 µM | 93.3 µM | –
N#Cc1cccc(C[P+](c2ccccc2)(c2ccccc2)c2ccccc2)c1 | > 200 µM | 135 µM | –
COc1cc(/C=N/NC2=NCCCCN2)ccc1O | > 200 µM | > 200 µM | –

SMILES | EC50 | IC50 | outcome
Cc1ccc2c(c1C)C(=O)C1(Cc3cc4c(cc3C1=O)CCC4)C2 (stereo not drawn) | > 100 µM | > 100 µM | –
CCOC(=O)CCCN(c1sc(C)c(-c2ccccc2)c1C(=O)OCC)S(=O)(=O)c1ccc(C)cc1 | > 200 µM | 3.98 µM | –
COc1ccc(C(=O)/C=C/c2ccc(OCC(=O)O)cc2)cc1 | > 200 µM | 69.2 µM | –
NC(=S)N/N=C1\CC(c2ccccc2)Nc2ccccc21 (stereo not drawn) | – | – | inactive
CN1C(=O)C(=O)n2c(cc3ccccc32)C1=O | > 6.31 µM | > 6.31 µM | –
O=C(O)c1ccc(S(=O)(=O)c2ccccc2)c([N+](=O)[O-])c1 | > 2510 µM | 288 µM | –
C=C(C)[C@@H]1CC[C@@H](C)[C@](O)([C@@H]2C[C@@H]([C@H](COC(=O)c3ccccc3)OC(=O)c3ccccc3)OC2=O)C1 | > 100 µM | > 100 µM | –
C=C1C(=O)OC2CC(C)C3CC(OC)OC(OC)C3(C)CC12 (stereo not drawn) | > 589 µM | 3.72 µM | –
O=C(CCC1C(=O)NC(=S)NC1=O)c1ccc2ccccc2c1 | > 110 µM | > 110 µM | –
Oc1cc(O)c2c(c1)OC(c1ccc(O)c(O)c1)C(O)C2c1c(O)cc(O)c2c1OC(c1ccc(O)c(O)c1)C(O)C2 (stereo not drawn) | > 200 µM | 102 µM | –
Oc1cc2c3c(c1)CCCN3CCC2 | > 200 µM | 195 µM | –
COC1/C=C\OC2(C)Oc3c(C)c(O)c4c(c3C2=O)C(=O)C=C(NC(=O)C(C)=C/C=C\C(C)C(O)C(C)C2OC(C)(C)OC(C1C)C2C)C4=O (stereo not drawn) | > 19.5 µM | 2.4 µM | –
Cc1cc(Cl)ccc1NC(=O)CCCC(=O)C1CCCC1=O (stereo not drawn) | – | – | inactive
COC(=O)Cc1ccc(COC(=O)c2cc(C(=CCC[C@H]3CC[C@@]4(C)[C@@H](CC[C@@H]5[C@@H]4CC[C@]4(C)[C@@H]([C@H](C)CCCC(C)C)CC[C@@H]54)C3)c3cc(Cl)c(OCc4ccc(CC(=O)OC)cc4)c(C(=O)OCc4ccc(CC(=O)OC)cc4)c3)cc(Cl)c2OCc2ccc(CC(=O)OC)cc2)cc1 | > 200 µM | > 200 µM | –
COC1CC(OC)C(O)C(CO)O1 (stereo not drawn) | – | – | inactive
CC(C)CCCC(C)[C@H]1CC[C@H]2[C@@H]3CC[C@H]4C[C@@H](CCC=C(c5cc(Cl)c(OCc6ccc(CC(=O)O)cc6)c(C(=O)O)c5)c5cc(Cl)c(OCc6ccc(CC(=O)O)cc6)c(C(=O)O)c5)CC[C@]4(C)[C@H]3CC[C@]12C (stereo partly drawn) | 1.7 µM and 1.41 µM | 115 µM and 20 µM | –
CN1NC(=O)SC(=O)c2ccccc2C1=O | – | – | inactive
Cc1ccc(C=Nc2ccc(SSc3ccc(N=Cc4ccc(C)cc4)cc3)cc2)cc1 | > 200 µM | 26.3 µM | –
